# Values quoted from earlier work as cited in patent publication US20050244461A1, “Controlled release drug delivery systems and methods for treatment of an eye” (Allergan, Inc., priority 2004, published 2005).
# Settings: in vivo efficacy; 25 mg hydrocortisone equivalent to 1 mg dexamethasone; Goodman and Gilman
smiles,measurement,value
C[C@]12CCC(=O)C=C1CC[C@@H]1[C@@H]2[C@@H](O)C[C@@]2(C)[C@H]1CC[C@]2(O)C(=O)CO [hydrocortisone],Potency relative to dexamethasone,approximately twentyfivefold less potent than dexamethasone
